Experiment: Physicochemical properties of the crystalline complex

Q: With `N#Cc1ccc([C@@H]2O[C@H](CO)[C@@H](O)[C@H](O)[C@H]2O)cc1Cc1ccc(C2CC2)cc1.O=C(O)[C@@H]1CCCN1` [crystalline complex] as the compound, how does the “tendency to absorb moisture” value read?
A: does not show a high tendency to absorb moisture

Q: What about the “physical and chemical stability” value (various environmental conditions and during production of a medicament) of the same compound?
A: high physical and chemical stability
